# Experimental data as given in ChEMBL document CHEMBL4196156, “Allosteric Modulators of the M4 Muscarinic Acetylcholine Receptor” (ACS Med Chem Lett, 2018).
# Biological target: T1, Muscarinic acetylcholine receptor M4 (Homo sapiens, UniProt P08173)
# T1 sequence (P08173 whole entry): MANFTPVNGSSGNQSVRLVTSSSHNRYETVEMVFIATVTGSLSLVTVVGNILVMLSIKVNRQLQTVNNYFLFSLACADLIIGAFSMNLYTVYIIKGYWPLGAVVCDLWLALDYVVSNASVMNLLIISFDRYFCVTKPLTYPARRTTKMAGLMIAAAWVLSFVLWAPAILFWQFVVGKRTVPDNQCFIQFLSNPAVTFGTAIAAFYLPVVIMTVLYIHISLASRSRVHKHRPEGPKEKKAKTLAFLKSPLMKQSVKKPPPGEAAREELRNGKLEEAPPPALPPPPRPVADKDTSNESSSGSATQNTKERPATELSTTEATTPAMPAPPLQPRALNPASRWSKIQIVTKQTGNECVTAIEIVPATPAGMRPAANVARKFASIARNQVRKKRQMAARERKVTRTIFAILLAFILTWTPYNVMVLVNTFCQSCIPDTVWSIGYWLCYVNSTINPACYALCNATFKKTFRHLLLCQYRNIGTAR
# Test: Positive allosteric modulation of human muscarinic acetylcholine receptor M4 expressed in CHO-K1 cells coexpressing Galphaqi5 assessed as increase in acetylcholine-induced […] incubated for 16 to 20 hrs measured for 3.5 to 4 mins by FLIPR assay
# Type: functional, cell-based
row,SMILES,EC50
1,Cc1cc2c(nc1N1CC[C@@H](Oc3ccc4c(cnn4C)c3)[C@@H](F)C1)CNC2=O,17 nM
2,COc1ccc(OC2CCN(c3nc(CO)nc(Cl)c3C)CC2)cn1,25 nM
3,COc1ccc(OC2CCN(c3nc4oc(=O)[nH]c(=O)c4c(Cl)c3C)CC2)cn1,15 nM
